From patent US7449447B2, “Peptidomimetic NS3-serine protease inhibitors of hepatitis C virus” (priority 2003, dated 2008)

Molecular target: T1, HCV NS3/NS4a serine protease (Hepatitis C virus genotype 1b, UniProt P26663)
T1 construct: amino terminus of the NS3 protease domain (amino acids 3-181) with a tetrapeptide linker; made in house; host or cells: E. coli
Experiment: Spectrophotometric assay for HCV protease inhibitory activity (chromogenic ester substrates)
Type: biochemical, hepatitis C virus (strain 1b)
Settings: Ki Rating, Table 2; single chain NS4A21-32-GSGS-NS3 3-181 protease, 30° C., pH 6.5
Outline: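 Single-chain NS4A(21-32)-GSGS-NS3(3-181) protease (genotype 1b) from E. coli was used at 1.3 nM in 25 mM MOPS pH 6.5 with 300 mM NaCl, 30 °C and 4% DMSO. Chromogenic ester substrate cleavage was followed as PAP release at 370 nm over 60 min. Ki was derived from vo/vi versus [I] plots assuming competitive inhibition.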

T1 sequence (P26663 1013-1207, looked up, natural form): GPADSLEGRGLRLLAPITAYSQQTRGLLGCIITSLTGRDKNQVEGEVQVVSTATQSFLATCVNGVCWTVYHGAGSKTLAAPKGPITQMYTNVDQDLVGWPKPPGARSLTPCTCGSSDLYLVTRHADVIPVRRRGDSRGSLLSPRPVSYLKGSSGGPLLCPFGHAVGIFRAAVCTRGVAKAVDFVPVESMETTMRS

Compound	Ki
CC(C)[C@H](NC(=O)N[C@H](C(=O)N1C[C@H]2[C@@H]([C@H]1C(=O)NC(CC(F)F)C(=O)NCCc1ccc(C(=O)O)cc1)C2(C)C)C(C)(C)C)C(=O)O (stereo partly shown) [Example 146]	> 500 nM
COC(=O)c1ccc(CCNC(=O)[C@H](CC(F)F)NC(=O)[C@@H]2[C@H]3CC(C)(C)O[C@H]3CN2C(=O)[C@@H](NC(=O)OCc2ccccc2)C2CCCCC2)cc1 [Example 173]	> 500 nM
CC(C)(C)[C@H](NC(=O)NC1(CS(C)(=O)=O)CCCCC1)C(=O)N1C[C@H]2[C@@H](C1C(=O)NC(CC(F)F)C(=O)NCCc1ccc(C(N)=O)cc1)C2(C)C (stereo partly shown) [Example 135]	100 to 500 nM
COC(=O)c1ccc(CCNC(=O)[C@H](CC(F)F)NC(=O)[C@@H]2[C@@H]3[C@H](CN2C(=O)[C@@H](NC(=O)N[C@H](C(=O)OC(C)(C)C)C(C)C)C(C)(C)C)C3(C)C)cc1 [Example 133]	100 to 500 nM

Same assay, conditions: Ki, Table 1; single chain NS4A21-32-GSGS-NS3 3-181 protease, 30° C., pH 6.5

Compound	Ki
COC(=O)c1ccc(CCNC(=O)[C@H](CC(F)F)NC(=O)[C@@H]2C3C(CN2C(=O)[C@@H](NC(=O)N[C@H](CN(C)S(C)(=O)=O)C(C)(C)C)C2CCCCC2)C3(C)C)cc1 (stereo partly shown) [Example 101]	11 nM
COC(=O)c1ccc(CCNC(=O)[C@H](CC(F)F)NC(=O)[C@@H]2[C@@H]3[C@H](CN2C(=O)[C@@H](NC(=O)N[C@H](CN(C)S(C)(=O)=O)C(C)(C)C)C(C)(C)C)C3(C)C)cc1 [Example 103]	22 nM
COC(=O)c1ccc(CCNC(=O)[C@H](CC(F)F)NC(=O)[C@@H]2[C@@H]3[C@H](CN2C(=O)[C@@H](NC(=O)N[C@H](CN(C)S(C)(=O)=O)C(C)(C)C)C(C)(C)C)C3(C)C)c(Cl)c1 [Example 105]	24 nM

Same assay, conditions: Ki, Table 3; rating; single chain NS4A21-32-GSGS-NS3 3-181 protease, 30° C., pH 6.5

Compound	Ki
CN(C[C@@H](NC(=O)N[C@H](C(=O)N1C[C@H]2[C@@H]([C@H]1C(=O)N[C@@H](CC(F)F)C(=O)NCCc1ccccc1Cl)C2(C)C)C(C)(C)C)C(C)(C)C)S(C)(=O)=O [Example 251]	< 100 nM
CN(C[C@@H](NC(=O)N[C@H](C(=O)N1C[C@H]2[C@@H]([C@H]1C(=O)N[C@@H](CC(F)F)C(=O)NCCC(c1ccccc1)c1ccccc1)C2(C)C)C(C)(C)C)C(C)(C)C)S(C)(=O)=O [Example 229]	> 500 nM
CN(C[C@@H](NC(=O)N[C@H](C(=O)N1C[C@H]2[C@@H]([C@H]1C(=O)N[C@@H](CC(F)F)C(=O)NS(=O)(=O)c1ccccc1)C2(C)C)C(C)(C)C)C(C)(C)C)S(C)(=O)=O [Example 257]	> 500 nM
CN(C[C@@H](NC(=O)N[C@H](C(=O)N1C[C@H]2[C@@H]([C@H]1C(=O)N[C@@H](CC(F)F)C(=O)NCCc1ccc(Oc3ccccc3)cc1)C2(C)C)C(C)(C)C)C(C)(C)C)S(C)(=O)=O [Example 291]	< 100 nM
CN(C[C@@H](NC(=O)N[C@H](C(=O)N1C[C@H]2[C@@H]([C@H]1C(=O)N[C@@H](CC(F)F)C(=O)NCCc1ccccc1F)C2(C)C)C(C)(C)C)C(C)(C)C)S(C)(=O)=O [Example 263]	< 100 nM
CCOc1ccc(CCNC(=O)[C@H](CC(F)F)NC(=O)[C@@H]2[C@@H]3[C@H](CN2C(=O)[C@@H](NC(=O)N[C@H](CN(C)S(C)(=O)=O)C(C)(C)C)C(C)(C)C)C3(C)C)cc1 [Example 274]	< 100 nM
CC(C)OCCCNC(=O)[C@H](CC(F)F)NC(=O)[C@@H]1[C@@H]2[C@H](CN1C(=O)[C@@H](NC(=O)N[C@H](CN(C)S(C)(=O)=O)C(C)(C)C)C(C)(C)C)C2(C)C [Example 214]	> 500 nM
C[C@H](NC(=O)[C@H](CC(F)F)NC(=O)[C@@H]1[C@@H]2[C@H](CN1C(=O)[C@@H](NC(=O)N[C@H](CN(C)S(C)(=O)=O)C(C)(C)C)C(C)(C)C)C2(C)C)[C@H](O)c1ccccc1 [Example 248]	< 100 nM
CCOC(=O)N1CCC(NC(=O)[C@H](CC(F)F)NC(=O)[C@@H]2[C@@H]3[C@H](CN2C(=O)[C@@H](NC(=O)N[C@H](CN(C)S(C)(=O)=O)C(C)(C)C)C(C)(C)C)C3(C)C)CC1 [Example 227]	> 500 nM
CC(C)[C@@H](CO)NC(=O)[C@H](CC(F)F)NC(=O)[C@@H]1[C@@H]2[C@H](CN1C(=O)[C@@H](NC(=O)N[C@H](CN(C)S(C)(=O)=O)C(C)(C)C)C(C)(C)C)C2(C)C [Example 232]	> 500 nM
CC(C)CCNC(=O)[C@H](CC(F)F)NC(=O)[C@@H]1[C@@H]2[C@H](CN1C(=O)[C@@H](NC(=O)N[C@H](CN(C)S(C)(=O)=O)C(C)(C)C)C(C)(C)C)C2(C)C [Example 208]	> 500 nM
CN(C[C@@H](NC(=O)N[C@H](C(=O)N1C[C@H]2[C@@H]([C@H]1C(=O)N[C@@H](CC(F)F)C(=O)N[C@H]1CCCC[C@H]1OCc1ccccc1)C2(C)C)C(C)(C)C)C(C)(C)C)S(C)(=O)=O [Example 256]	> 500 nM
CN(C[C@@H](NC(=O)N[C@H](C(=O)N1C[C@H]2[C@@H]([C@H]1C(=O)N[C@@H](CC(F)F)C(=O)N[C@@H]1C[C@@H]1c1ccccc1)C2(C)C)C(C)(C)C)C(C)(C)C)S(C)(=O)=O [Example 308]	< 100 nM
CN(C[C@@H](NC(=O)N[C@H](C(=O)N1C[C@H]2[C@@H]([C@H]1C(=O)N[C@@H](CC(F)F)C(=O)N[C@@H]1c3ccccc3C[C@@H]1O)C2(C)C)C(C)(C)C)C(C)(C)C)S(C)(=O)=O [Example 247]	> 500 nM
COc1ccc(CCNC(=O)[C@H](CC(F)F)NC(=O)[C@@H]2[C@@H]3[C@H](CN2C(=O)[C@@H](NC(=O)N[C@H](CN(C)S(C)(=O)=O)C(C)(C)C)C(C)(C)C)C3(C)C)cc1 [Example 271]	< 100 nM
CN(C[C@@H](NC(=O)N[C@H](C(=O)N1C[C@H]2[C@@H]([C@H]1C(=O)N[C@@H](CC(F)F)C(=O)NCCCN1CCOCC1)C2(C)C)C(C)(C)C)C(C)(C)C)S(C)(=O)=O [Example 242]	> 500 nM
CN(C[C@@H](NC(=O)N[C@H](C(=O)N1C[C@H]2[C@@H]([C@H]1C(=O)N[C@@H](CC(F)F)C(=O)N[C@@H]1CCC[C@H]1OCc1ccccc1)C2(C)C)C(C)(C)C)C(C)(C)C)S(C)(=O)=O [Example 254]	> 500 nM
CN(CCc1ccccn1)C(=O)[C@H](CC(F)F)NC(=O)[C@@H]1[C@@H]2[C@H](CN1C(=O)[C@@H](NC(=O)N[C@H](CN(C)S(C)(=O)=O)C(C)(C)C)C(C)(C)C)C2(C)C [Example 305]	> 500 nM
CN(CCc1ccccc1)C(=O)[C@H](CC(F)F)NC(=O)[C@@H]1[C@@H]2[C@H](CN1C(=O)[C@@H](NC(=O)N[C@H](CN(C)S(C)(=O)=O)C(C)(C)C)C(C)(C)C)C2(C)C [Example 303]	> 500 nM
CN(C[C@@H](NC(=O)N[C@H](C(=O)N1C[C@H]2[C@@H]([C@H]1C(=O)N[C@@H](CC(F)F)C(=O)N1Cc3ccccc3C1)C2(C)C)C(C)(C)C)C(C)(C)C)S(C)(=O)=O [Example 301]	> 500 nM
CN(C[C@@H](NC(=O)N[C@H](C(=O)N1C[C@H]2[C@@H]([C@H]1C(=O)N[C@@H](CC(F)F)C(=O)NCCc1ccccc1Br)C2(C)C)C(C)(C)C)C(C)(C)C)S(C)(=O)=O [Example 289]	< 100 nM
CCN(CC)CCNC(=O)[C@H](CC(F)F)NC(=O)[C@@H]1[C@@H]2[C@H](CN1C(=O)[C@@H](NC(=O)N[C@H](CN(C)S(C)(=O)=O)C(C)(C)C)C(C)(C)C)C2(C)C [Example 234]	> 500 nM
COc1cccc(CCNC(=O)[C@H](CC(F)F)NC(=O)[C@@H]2[C@@H]3[C@H](CN2C(=O)[C@@H](NC(=O)N[C@H](CN(C)S(C)(=O)=O)C(C)(C)C)C(C)(C)C)C3(C)C)c1OC [Example 277]	100 to 500 nM
CN(C[C@@H](NC(=O)N[C@H](C(=O)N1C[C@H]2[C@@H]([C@H]1C(=O)N[C@@H](CC(F)F)C(=O)NC1CCc3ccccc31)C2(C)C)C(C)(C)C)C(C)(C)C)S(C)(=O)=O (stereo partly shown) [Example 217]	> 500 nM
